# Patent EP4744680A1, “TARGETED CHEMICAL DRUG AND PREPARATION METHOD THEREFOR, PHARMACEUTICAL COMPOSITION, AND USE OF TARGETED CHEMICAL DRUG” (Bai Yao Zhi Da (Beijing) Nanobio Technology Co., Ltd., priority 2023, dated 2025)
# Columns and labels:
# [1] = Body weight and general condition in the U251 study; type: in vivo, mouse (BALB/c nude); conditions: 15mg/Kg intraperitoneal daily for 4 weeks
# Protocol: The relationship between body weight change and the dosing regimen is recorded.Survival and health status are also monitored, including activity levels and food intake during the dosing period. • c) Tumor and Organ Imaging: At the end of the dosing period, mice are euthanized, and their brain, heart, liver, spleen, lungs, and kidneys are excised.
# [2] = system: U251-RFP human glioma; assay: In-vivo efficacy study in the U251-RFP human glioma orthotopic mouse model (drug of Example 9); design: species or system mouse (BALB/c nude); conditions: 15mg/Kg intraperitoneal daily for 4 weeks
# Source text: 2.Dosing regimen: Table 41
smiles,measurement,setting,value
Cn1nnc2c(C(N)=O)ncn2c1=O [Temozolomide],Body weight change on Day 27 compared to pre-dosing,[1],+12%
same,"Tumor growth inhibition rate (TGI, %) at different days post-inoculation",[2]; Day 6,9.9%
same,"Tumor growth inhibition rate (TGI, %) at different days post-inoculation",[2]; Day 10,13.2%
same,"Tumor growth inhibition rate (TGI, %) at different days post-inoculation",[2]; Day 13,39.6%
same,"Tumor growth inhibition rate (TGI, %) at different days post-inoculation",[2]; Day 17,65.6%
same,"Tumor growth inhibition rate (TGI, %) at different days post-inoculation",[2]; Day 20,73.7%
same,"Tumor growth inhibition rate (TGI, %) at different days post-inoculation",[2]; Day 24,73.7%
same,"Tumor growth inhibition rate (TGI, %) at different days post-inoculation",[2]; Day 27,74.2%
same,Tumor weight,[2]; end of dosing period,0.002 ± 0.001 g
same,IRTW%,[2]; tumor weight inhibition rate,98.34%
